# Where two headings read alike, the source gives them in different places. Starred links: 1 amine or outer side, 2 acyl side, 3 side chain; linkers in the order of their positions; H or OH if unused. Non-standard residues stand in square brackets, D forms with d. Residues, ends and D or L forms follow the SMILES beside them. Groups on a side chain read outwards from the residue. *: point of attachment. C18 diacid = O=C(O)CCCCCCCCCCCCCCCCC(=O)*; γGlu = O=C(O)[C@H](CCC(=O)[*:2])N[*:1]; AEEA = NCCOCCOCC(=O)O; Aib = CC(C)(N)C(=O)O
# Columns and labels:
# CRF1R receptor = molecular target: T1, CRF1R receptor (Homo sapiens, UniProt P34998); assay: cAMP activity at anti-target CRF1R, CRF1R-overexpression CHO cell line (Example 9); assay type: cell-based; details: CRF1R-overexpression CHO cell line; for EC50: 0% HSA; for Emax: read-out: Emax (%)
# T1 construct: host or cells: CHO-K1 clone 2
# T1 sequence (P34998 24-415): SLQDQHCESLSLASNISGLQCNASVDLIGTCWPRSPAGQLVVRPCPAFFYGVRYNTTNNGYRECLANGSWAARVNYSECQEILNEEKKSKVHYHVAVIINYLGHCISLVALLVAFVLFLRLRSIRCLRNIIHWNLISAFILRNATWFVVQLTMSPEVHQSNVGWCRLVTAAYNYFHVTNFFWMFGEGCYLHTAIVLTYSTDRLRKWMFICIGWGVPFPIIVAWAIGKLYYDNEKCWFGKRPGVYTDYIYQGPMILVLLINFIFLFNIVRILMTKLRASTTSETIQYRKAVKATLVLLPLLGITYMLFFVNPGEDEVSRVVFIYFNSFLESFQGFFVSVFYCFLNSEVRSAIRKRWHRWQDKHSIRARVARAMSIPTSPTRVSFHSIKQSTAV
# Method in brief: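 cAMP accumulation was read by HTRF after 30 min at room temperature of compound treatment. Cells were cryopreserved CHO cells overexpressing CRF1R, plated at 2000/well in IBMX (2 mM)-containing HBSS/HEPES buffer with 0 or 0.1% HSA. Activity was normalized to 1000 nM UCN2 as 100%.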
# [1] = Solubility in buffer systems by UPLC-UV (Example 13); assay type: physicochemical
# Method in brief: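 The supernatant was diluted 1:10 and quantified by UPLC-UV peak area against a reference standard curve, correcting for sequence-based extinction coefficients.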
# [2] = Physical stability, Thioflavin T fibrillation assay (Example 14); assay type: physicochemical; details: 3 mg/ml, 37° C. shaking
# Method: The physical stability of the compounds was assessed using a Thioflavin T (ThT) assay.
# The time course for fibril formation often follows the characteristic shape of a sigmoidal curve and can be separated into three regions: a lag phase, a fast growth phase, and a plateau phase. The typical fibril formation process starts with the lag phase in which the amount of partially folded peptide turned into fibrils is not significant enough to be detected. The lag-time corresponds to the time the critical mass of the nucleus is built. Afterwards, a drastic elongation phase follows and fibril concentration increases rapidly. Therefore, by measuring the increase in fluorescence intensity attributable to ThT as well as the lag time of the increase, the fibrillation tendency of a peptide can be determined, thereby providing a measure of the physical stability of the peptide.
# In the present study, test compounds were diluted in buffer to a final concentration of 3 mg/ml.
# The fibrillation tendencies of the peptides were determined under stress using a Fluoroskan Ascent FL or Fluoroskan Ascent fluorometer. […] Plates were sealed with Scotch Tape (Quiagen). Samples were stressed by continuous cycles of 10 s shaking at 960 rpm and 50 s rest period at 37° C. Fibril development was monitored by measuring fluorescence intensity every 20 minutes. For each sample, eight replicates were tested.
# rat CRF2R α receptor = assay: cAMP agonism at rat CRF2R α receptor in A7R5 rat aortic smooth muscle cells (Example 8); assay type: cell-based; details: cAMP HTRF, A7R5 rat aortic smooth muscle cell line, 0% HSA
# Method in brief: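 Thawed cryopreserved A7R5 cells in HBSS/20 mM HEPES (0 or 0.1% HSA) with 2 mM IBMX, 2000 cells/well, were exposed to compound for 30 min at room temperature. cAMP was read by HTRF (665/620 nm ratio) after 1 h with lysis reagents. Activity was normalised to 1000 nM urocortin 2 as 100%, and EC50 was taken as the concentration giving 50% of maximal activation.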
# human CRF2α receptor = molecular target: T2, human CRF2α receptor (Homo sapiens, UniProt Q13324); assay: cAMP agonism at human CRF2 α receptor in TeloHEAC cells (Example 7); assay type: cell-based; details: cAMP HTRF, TeloHEAC cells stably expressing human CRF2 α
# T2 construct: expressed in transfected cells; host or cells: TeloHEAC
# T2 sequence (Q13324 1-411): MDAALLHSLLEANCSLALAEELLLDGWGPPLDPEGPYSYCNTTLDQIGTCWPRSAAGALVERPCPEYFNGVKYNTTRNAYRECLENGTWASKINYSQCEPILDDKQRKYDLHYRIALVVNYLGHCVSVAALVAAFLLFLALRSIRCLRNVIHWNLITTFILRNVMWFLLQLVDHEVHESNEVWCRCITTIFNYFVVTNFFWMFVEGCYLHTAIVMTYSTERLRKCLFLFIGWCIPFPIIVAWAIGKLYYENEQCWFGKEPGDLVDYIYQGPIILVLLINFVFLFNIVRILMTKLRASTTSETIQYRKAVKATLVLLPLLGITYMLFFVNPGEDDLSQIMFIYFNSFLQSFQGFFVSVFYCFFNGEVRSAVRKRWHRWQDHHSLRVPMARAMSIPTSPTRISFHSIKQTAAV
# Method in brief: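 Steps: thaw and wash cells; suspend in 1×HBSS, 20 mM HEPES, 0 or 0.1% HSA, 2 mM IBMX; add compound, 30 min RT; lyse with HTRF reagents, 1 h; read 665/620 nm. EC50 calculated, E% versus 1000 nM UCN2.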
# [3] = pH 7.4, Solubility in Buffer C [mg/ml]
# [4] = Buffer A: 100 mM acetate buffer, pH 4.5
# [5] = Buffer B: 100 mM acetate buffer, pH 4.5, 2.7 mg/ml m-cresol
# [6] = 0% HSA, read-out: EC50 [nM], 0% HSA
EC50 (CRF1R receptor) [nM],Emax (CRF1R receptor) [%],"solubility at 1 h ([1]; pH 4.5, Solubility in Buffer B [mg/ml]) [µg/mL]","solubility at 1 h [1, 3] [µg/mL]","Increase in FI (fluorescence intensity) [2, 4]","Lag time [2, 4] [h]","Increase in FI (fluorescence intensity) [2, 5]","Lag time [2, 5] [h]",EC50 (rat CRF2R α receptor) [nM],EC50 (human CRF2α receptor; [6]) [nM],"EC50 (human CRF2α receptor; 0.1% HSA, read-out: EC50 [nM], 0.1% HSA) [nM]",Structure (SMILES)
> 1000,2.7,> 9000,> 7900,No,>45,No,>45,1.71,0.48,–,CC[C@H](C)[C@H](N)C(=O)N[C@H](C(=O)N[C@@H](CC(C)C)C(=O)N[C@@H](CO)C(=O)N[C@@H](CC(C)C)C(=O)N[C@@H](CC(=O)O)C(=O)N[C@H](C(=O)N1CCC[C@H]1C(=O)N[C@H](C(=O)N[C@@H](CCCCN)C(=O)N[C@@H](CC(C)C)C(=O)N[C@@H](CCCCNC(=O)COCCOCCNC(=O)COCCOCCNC(=O)CC[C@H](NC(=O)CCCCCCCCCCCCCCCCC(=O)O)C(=O)O)C(=O)N[C@@H](CCC(N)=O)C(=O)N[C@H](C(=O)N[C@@H](CC(C)C)C(=O)N[C@@H](CC(C)C)C(=O)N[C@@H](CCCCN)C(=O)N[C@@H](CCC(N)=O)C(=O)N[C@@H](CCC(=O)O)C(=O)N[C@@H](CCCNC(=N)N)C(=O)N[C@@H](CCC(N)=O)C(=O)N[C@@H](CCCCN)C(=O)N[C@@H](CCCCN)C(=O)N[C@@H](CCC(N)=O)C(=O)N[C@@H](CCCNC(=N)N)C(=O)N[C@@H](CCC(N)=O)C(=O)N[C@@H](CCC(N)=O)C(=O)N[C@@H](C)C(=O)N[C@@H](CCC(=O)O)C(=O)N[C@H](C(=O)N[C@@H](CC(N)=O)C(=O)NC(C)(C)C(=O)N[C@@H](CCC(N)=O)C(=O)N[C@H](C(=O)N[C@@H](CC(C)C)C(=O)N[C@@H](C)C(=O)N[C@@H](CCC(N)=O)C(=O)N[C@H](C(N)=O)C(C)C)[C@@H](C)CC)[C@@H](C)O)[C@@H](C)CC)[C@@H](C)CC)C(C)C)C(C)C [compound 75] (H-IVLSLDVPIKLK([AEEA-AEEA-γGlu-C18 diacid])QILLKQERQKKQRQQAETN[Aib]QILAQV-NH2)
> 1000,1.03,–,> 8800,No,>45,No,>45,0.22,0.11,4.36,CC[C@H](C)[C@H](NC(=O)[C@H](CCC(N)=O)NC(=O)[C@H](CCCCNC(=O)COCCOCCNC(=O)COCCOCCNC(=O)CC[C@H](NC(=O)CCCCCCCCCCCCCCCCC(=O)O)C(=O)O)NC(=O)[C@H](CC(C)C)NC(=O)[C@H](CCCCN)NC(=O)[C@@H](NC(=O)[C@@H]1CCCN1C(=O)[C@@H](NC(=O)[C@H](CC(=O)O)NC(=O)[C@H](CC(C)C)NC(=O)[C@H](CO)NC(=O)[C@H](CC(C)C)NC(=O)[C@@H](NC(=O)[C@@H](N)Cc1ccccc1)[C@@H](C)O)C(C)C)[C@@H](C)CC)C(=O)N[C@@H](CC(C)C)C(=O)N[C@@H](CC(C)C)C(=O)N[C@@H](CCCCN)C(=O)N[C@@H](CCC(N)=O)C(=O)N[C@@H](CCC(=O)O)C(=O)N[C@@H](CCCNC(=N)N)C(=O)N[C@@H](CCC(N)=O)C(=O)N[C@@H](CCCCN)C(=O)N[C@@H](CCCCN)C(=O)N[C@@H](CCC(N)=O)C(=O)N[C@@H](CCCNC(=N)N)C(=O)N[C@@H](CCC(N)=O)C(=O)N[C@@H](CCCCN)C(=O)N[C@@H](C)C(=O)N[C@@H](CCCCN)C(=O)N[C@@H](CCCCN)C(=O)N[C@@H](CC(N)=O)C(=O)N[C@@H](CCCCN)C(=O)N[C@@H](CCC(N)=O)C(=O)N[C@H](C(=O)N[C@@H](CC(C)C)C(=O)N[C@@H](CCC(=O)O)C(=O)N[C@@H](CCCNC(=N)N)C(=O)N[C@H](C(N)=O)C(C)C)[C@@H](C)CC [compound 146] (H-FTLSLDVPIKLK([AEEA-AEEA-γGlu-C18 diacid])QILLKQERQKKQRQKAKKNKQILERV-NH2; N-terminus assumed)
